Experimental data as given in paper PMC4278898 (PLoS ONE, 2014).
Values joined by “and” are separate entries in the source; they are usually repeats but may differ in a detail not shown here. Equal entries are not always repeated. “Also recorded” adds a separate entry of the source. Where two headings read alike, the source gives them in different places.

Experiments:
[1] = tested on: TZM-bl, HeLa, PBMC, and H9 cells; assay: Cytotoxicity tests on TZM-bl, HeLa, PBMC and H9 cells (summary statements); format: cell-based, human; conditions: positive control AZT 60 µM
Procedure: (§3) The in vitro cytotoxic effect of each of the flavonoids was determined by a resazurin fluorometric method (Cell Titer Blue Viability Assay, Promega Corp, Madison, WI), as described by O'Brien et al. [27]. TZM-bl and HeLa adherent cells were each separately seeded (1×10^5 cell/mL) into a 96 well plate (Greiner Bio-One North America, Inc Monroe, NC, USA). After 24 hours, their morphology was observed under an inverted microscope. The experimental natural compounds were then added to the cultured cells (n = 9) plates, and incubated for 24 hours. The cells were washed with pre-warmed PBS (Lonza Walkersville, Inc. Walkersville, MD) and the medium was replaced with medium pre-warmed to 37°C. Resazurin was added, and the cells were incubated for 3.5 hours. […] The cytotoxic effect of the three flavonoids on H9 and PBMC cells was determined using the same protocol.

HIV-1 BaL [2] = assay: Anti-HIV activity in infected TZM-bl cells (luciferase); format: cell-based; conditions: for anti-HIV activity compared with the vehicle control (HIV-1 BaL, TZM-bl): concentration not stated (range 0.01–100 µM)
HIV-1 BaL [3] = assay: Microbicide activity in the dual-chamber model (HeLa apical, TZM-bl basal; luciferase); conditions: Human immunodeficiency virus 1, BAL
Procedure: (§4) Transwell assay inserts with 8 µM diameter pores and 0.3 cm^2 of culture surface (Greiner Bio-One, Monroe, NC,) were positioned in the wells of a 24-well plate. Then 1×10^4 HeLa cells were seeded into each transwell insert/apical chamber (using DMEM with 10% FBS). TZM-bl cells (1×10^5) were seeded into the basal chambers below the inserts, and the plates were incubated at 37°C in humid air containing 5% CO2. To assess confluence, the Trans Epithelial Electric Resistance (TEER) (described by Arien et al. [33]) of each HeLa cell layer was measured with a Millicell-ERS Volt-Ohm Meter (Millipore, Bedford, MA) before and after flavonoids treatments. Cell layer confluence in the transwell inserts was measured daily, until the optimal TEER (>150 Ohm/cm^2) was reached on day 4. On day 4, the media in the basal chamber and the insert was replaced with new pre-warmed media. […] The plate was incubated at 37°C, in humid air containing 5% CO2.
The experiments were performed in triplicate and repeated three different times.

TZM-bl cells [4] = assay: Cell viability in the dual-chamber model (resazurin); conditions: resazurin method
Procedure: The in vitro cytotoxic effect of each of the flavonoids was determined by a resazurin fluorometric method (Cell Titer Blue Viability Assay, Promega Corp, Madison, WI), as described by O'Brien et al. [27]. TZM-bl and HeLa adherent cells were each separately seeded (1×10^5 cell/mL) into a 96 well plate (Greiner Bio-One North America, Inc Monroe, NC, USA). After 24 hours, their morphology was observed under an inverted microscope. The experimental natural compounds were then added to the cultured cells (n = 9) plates, and incubated for 24 hours. The cells were washed with pre-warmed PBS (Lonza Walkersville, Inc. Walkersville, MD) and the medium was replaced with medium pre-warmed to 37°C. Resazurin was added, and the cells were incubated for 3.5 hours.
Transwell assay inserts with 8 µM diameter pores and 0.3 cm^2 of culture surface (Greiner Bio-One, Monroe, NC,) were positioned in the wells of a 24-well plate. Then 1×10^4 HeLa cells were seeded into each transwell insert/apical chamber (using DMEM with 10% FBS). […] To assess confluence, the Trans Epithelial Electric Resistance (TEER) (described by Arien et al. [33]) of each HeLa cell layer was measured with a Millicell-ERS Volt-Ohm Meter (Millipore, Bedford, MA) before and after flavonoids treatments. Cell layer confluence in the transwell inserts was measured daily, until the optimal TEER (>150 Ohm/cm^2) was reached on day 4. […]

H9 cells = assay: Cytotoxicity assay (resazurin fluorometric method), H9 cells; format: cell-based, human
HIV-1 89.6 [5] = assay: Anti-HIV activity in PBMC, HIV-1 89.6 (p24 ELISA); format: cell-based; conditions: for anti-HIV activity, PBMC cells, HIV-1 89.6: p24 ELISA, concentration not given; for IC50: Human immunodeficiency virus 1, HIV-1 89.6, p24 ELISA
Procedure: The viability of the cells was assessed by the resazurin fluometric method as describe previously. After incubation, the supernatant from each well was collected and stored at -80°C for performance of p24 ELISA.
(§1) The HIV-1 p24 Antigen ELISA 2.0 Kit (ZeptoMetrix Corporation, Bufalo, NY) was used to monitor and determine the titer of HIV-1-based lentiviral samples, as described by Gonçalves et al.. For each sample (n = 9), a 225 µL volume was treated with 25 µL of lysing buffer. An ELISA array plate was washed three times with 300 µL/well of wash buffer in a microplate washer (MultiWash III, TriContinent, Grass Valley, CA), and 200 µL/well of each treated samples was transferred to the plate. The plate was incubated at 37°C for 3 hours, then washed six times, incubated for 1 hour with 100 µL/well of HIV-1 p24 detector antibody, washed six more times, and incubated 30 min at room temperature with 100 µL/well of substrate. The reaction was stopped by addition of stop solution (100 µL/well). The absorbance was determined using a microplate reader (SpectraMax M5, Molecular Devices, Sunnyvale, CA) at 450 nm, and the samples were calibrated against the HIV-1 p24 standard curve, generated from a series of standards loaded on the same plate.

HeLa cell layer = assay: Trans Epithelial Electric Resistance (TEER) of HeLa cell layer in dual-chamber model; conditions: dual-chamber transwell insert
Procedure: as §4

[6] = Cytotoxicity tests on TZM-bl, HeLa, PBMC and H9 cells (summary statements); format: cell-based, human; conditions: human, TZM-bl, HeLa, PBMC, H9; for viability at 24 h: at concentrations between 20 µM–60 µM, read-out: cell viability
Procedure: as §3

PBMC cells = assay: Cytotoxicity assay (resazurin fluorometric method), PBMC cells; format: cell-based, human
HIV-1 89.6 [7] = assay: Anti-HIV activity in H9 cells, HIV-1 89.6 (p24 ELISA); format: cell-based; conditions: for inhibition of infection / anti-HIV activity, H9 cells, HIV-1 89.6: p24 ELISA, concentration not given
Procedure: (§2) HIV-1 infection of H9 cells was performed as described by Gurgo et al. as follows: H9 cells were seeded at 1×10^5 cell/mL into a 24 well plate. […] After 48 hours of incubation, the supernatant was collected and frozen at −80°C. ELISA was performed to detect p24, and the cytotoxicity assay was done using the resazurin fluorometric method, as described previously.
as §1

HeLa cells = assay: Cytotoxicity assay (resazurin fluorometric method), HeLa cells; format: cell-based, human
HIV-1 MN [8] = assay: Anti-HIV activity in PBMC, HIV-1 MN (p24 ELISA); format: cell-based; conditions: for anti-HIV activity, PBMC cells, HIV-1 MN: concentration not given
TZM-bl cells [9] = assay: Cytotoxicity assay (resazurin fluorometric method), TZM-bl cells; format: cell-based, human
HIV-1 MN [10] = assay: Anti-HIV activity in H9 cells, HIV-1 MN (p24 ELISA); format: cell-based; conditions: for inhibition of infection / anti-HIV activity, H9 cells, HIV-1 MN: concentration not given
Procedure: as §2, §1

[11] = Human immunodeficiency virus 1, H9
[12] = Human immunodeficiency virus 1, BAL, TZM-bl
[13] = TZM-bl cells, 24 hours treatment, concentration that kills 50% of the cells
[14] = Human immunodeficiency virus 1, H9 cells, HIV-1 89.6, p24 ELISA, read-out: IC50
[15] = Human immunodeficiency virus 1, PBMC cells, HIV-1 MN, p24 ELISA, read-out: IC50
[16] = Human immunodeficiency virus 1, H9 cells, HIV-1 MN, p24 ELISA, read-out: IC50

Structure (SMILES) | LD50 (H9 cells; H9 cells) [µM] | anti-HIV activity, PBMC cells, HIV-1 89.6 (HIV-1 89.6 [5]) | LD50 (PBMC cells; PBMC cells) [µM] | LD50 (HeLa cells; HeLa cells, 24 hours treatment) [µM] | IC50 (HIV-1 BaL [2]; [12]) [µM] | LD50 (TZM-bl cells [9]; [13]) | IC50 (HIV-1 89.6 [5]; PBMC cells) [µM] | IC50 (HIV-1 89.6 [7]; [14]) [µM] | inhibition of infection / anti-HIV activity, H9 cells, HIV-1 89.6 (HIV-1 89.6 [7]) [%] | IC50 (HIV-1 MN [8]; [15]) [µM] | anti-HIV activity, PBMC cells, HIV-1 MN (HIV-1 MN [8]; p24 ELISA) [%] | anti-HIV activity compared with the vehicle control (HIV-1 BaL, TZM-bl) (HIV-1 BaL [2]) [%] | IC50 (HIV-1 MN [10]; [16]) [µM] | inhibition of infection / anti-HIV activity, H9 cells, HIV-1 MN (HIV-1 MN [10]; p24 ELISA) [%] | further results
Cc1cn([C@H]2C[C@H](N=[N+]=[N-])[C@@H](CO)O2)c(=O)[nH]c1=O [AZT, Zidovudine, reference compound] | – | – | – | – | – | – | – | – | – | – | – | – | – | – | effect on cell growth [1]: did not affect the cell growth; inhibition at 60 µM (HIV-1 BaL [2]; Human immunodeficiency virus 1, BAL, TZM-bl, read-out: inhibition of HIV infection by positive control (HIV-1 BaL, TZM-bl)): ≥ 90%
O=c1c(O)c(-c2cc(O)c(O)c(O)c2)oc2cc(O)cc(O)c12 [Myricetin] | 1059.09 | more than 80% | 1159.26 | 804.94 | 20.4 | 1214.92 µM and 1214.72 µM | – | – | – | – | – | – | – | – | IC50 (HIV-1 BaL [3]; read-out: IC50, HIV-1 BaL infection in dual-chamber system): 19.5 µM; inhibition at 100 µM (HIV-1 BaL [3]; read-out: inhibition of HIV-1 BaL infection in dual-chamber system): > 88%; cell viability in dual-chamber model versus negative control (only cells) (TZM-bl cells [4]): no statistically significant difference; also recorded: did not show a statistically significant difference on cell viability; inhibition at 100 µM (HIV-1 89.6 [5]; Human immunodeficiency virus 1, PBMC, read-out: inhibition of HIV-1 89.6 infection in PBMC cells): 85%; x higher than Pinocembrin, HIV-1 89.6, PBMC (HIV-1 89.6 [5]; PBMC cells): 16.4 x; x higher than Quercetin, HIV-1 89.6, PBMC (HIV-1 89.6 [5]; PBMC cells): 12.3 x; TEER of HeLa cell layer before and after flavonoid treatment (HeLa cell layer): 208 Ohm/cm^2; viability at 24 h, 100 µM ([6]; PBMC and H9 cells, at 100 µM concentration, read-out: cell viability compared with the negative control (only cells)): ≥ 85%; anti-HIV activity greater than for Pinocembrin, HIV-1 89.6, H9 (HIV-1 89.6 [7]; H9 cells): 23.9 x; anti-HIV activity greater than for Quercetin, HIV-1 89.6, H9 (HIV-1 89.6 [7]; H9 cells): 16.9 x; IC50 (HIV-1 89.6 [7]; [11]): 1.76 µM; IC50 (HIV-1 MN [8]; Human immunodeficiency virus 1, PBMC): 4.49 µM; inhibition at 100 µM (HIV-1 MN [8]; Human immunodeficiency virus 1, PBMC, read-out: inhibition of HIV-1 MN infection in PBMC cells): 86%; inhibition at 100 µM (HIV-1 BaL [2]; Human immunodeficiency virus 1, BAL, TZM-bl, read-out: inhibition of HIV-1 BaL infection in TZM-bl cells): > 87%; anti-HIV activity greater compared to Pinocembrin, HIV-1 MN, H9 (HIV-1 MN [10]; H9 cells): ~2.9 x; anti-HIV activity greater than that of Quercetin, HIV-1 MN, H9 (HIV-1 MN [10]; H9 cells): approximately 1.7 x; IC50 (HIV-1 MN [10]; [11]): 22.9 µM
O=C1C[C@@H](c2ccccc2)Oc2cc(O)cc(O)c21 [Pinocembrin] | – | 51% | – | – | – | – | 53.2 | 42.2 | ≥ 60 | 57.7 | 67 | 28 | 67.2 | ≥ 60 | LD50 (H9 cells; human, 24 h): 805.76 µM; viability at 24 h ([6]; PBMC and H9 cells): ≥ 85%; LD50 (PBMC cells; human, 24 h): 788.23 µM; LD50 (HeLa cells; human, 24 h): 99.52 µM; IC50 (HIV-1 BaL [2]; Human immunodeficiency virus 1, TZM-bl cells, HIV-1 BaL, MOI = 1, read-out: IC50): 347 µM; LD50 (TZM-bl cells [9]; human, 24 h): 67.94 µM
O=c1c(O)c(-c2ccc(O)c(O)c2)oc2cc(O)cc(O)c12 [Quercetin] | 905.76 | 59% | 813.57 | 78.20 | 89 | 119.23 µM | 39.3 | 29.8 | ≥ 64 | 31.7 | 45 | 39 | 38.8 | ≥ 64 | viability at 24 h [6]: ≥ 85%
